From PMC9669016, “First-in-human phase Ia study of the PI3Kα inhibitor CYH33 in patients with solid tumors” (Nature Communications, 2022)
Where two headings read alike, the source gives them in different places.

Test: Clinical pharmacokinetics: plasma CYH33 and I27 by LC/MS/MS
Format: in vivo, human
Settings: human, plasma; for AUC(0-inf): read-out: AUC0-∞, mean (CV%)
Experimental: The PK characteristics of CYH33 and its active metabolite I27 were evaluated after single and multiple dose administrations. PK data were obtained from 37 patients from 7 dose cohorts: 1 mg (n = 1), 5 mg (n = 1), 10 mg (n = 2), 20 mg (n = 6), 30 mg (n = 12), 40 mg (n = 13), and 60 mg (n = 2). Intensive and sparse PK sampling was performed. Prior to initiating a continuous daily treatment cycle, the first 5 patients participated in a single dose PK treatment period with a 7-day washout in order to determine the terminal-phase half-life (t1/2) of CYH33 and its active metabolite I27. Based on the single dose PK data for CYH33 of the first 5 patients at doses of 1, 5, 10 and 20 mg, the PK and metabolic characteristics of CYH33 and I27 were evaluated. Combined with the pre-specified rules in the protocol and deliberation from the SMC, subsequent patients directly entered the continuous dose phase.
Blood samples for PK evaluation were collected at: (1) during the single dose phase: on day 1 pre-dose and 0.5, 1, 2, 4, 8, 12, 24, 36, 48, and 72 h post-dose; (2) during the continuous dose phase: C1D1/Cycle 1 Day 28 pre-dose, and 0.5, 1, 2, 3, 4, 6, 8, 12, and 24 h post-dose; and C1D8/Day 15 pre-dose. Plasma concentrations of CYH33 and I27 were analyzed using a liquid chromatography-tandem mass spectrometry (LC/MS/MS) assay (Shimadzu Corporation, LC-30AD) with a lower limit of quantification (LLOQ) of 2.585 ng/mL and 1.0 ng/mL for CYH33 and I27, respectively. […] Blood samples for measuring the FBG level were collected within 30 min before dosing on C1D1, C1D15, and on the first day of subsequent treatment cycles.

COC(=O)Nc1cc(C(F)(F)F)c(-c2nc(N3CCOCC3)c3cc(CN4CCN(S(C)(=O)=O)CC4)cn3n2)cn1 [CYH33, methyl (5-(6-((4-(methylsulfonyl)piperazin-1-yl)methyl)−4-morpholinopyrrolo[2,1-f][1,2,4]triazin-2-yl)−4-(trifluoromethyl)pyridin-2-yl)carbamate]
AUC(0-t) (oral, 30 mg, CYH33, Cycle 1 Day 1, 30 mg (n = 12), read-out: AUC0-24h, mean (CV%)): 1300 ng·h/mL | Cmax (oral, 30 mg, CYH33, Cycle 1 Day 1, 30 mg (n = 12), read-out: Cmax, mean (CV%)): 96.5 ng/mL | Tmax (oral, 30 mg, CYH33, Cycle 1 Day 1, 30 mg (n = 12), read-out: Tmax, median (min-max)): 3.5 h | AUC(0-t) (oral, 30 mg, CYH33, Cycle 1 Day 28, 30 mg (n=9), read-out: AUC0-24h, mean): 3530 ng·h/mL | Cmax (oral, 30 mg, CYH33, Cycle 1 Day 28, 30 mg (n=9), read-out: Cmax, mean): 187 ng/mL | Tmax (oral, 30 mg, CYH33, Cycle 1 Day 28, 30 mg (n=9), read-out: Tmax, median): 3 h | AUC(0-t) (oral, 40 mg, CYH33, Cycle 1 Day 1, 40 mg (n = 3), read-out: AUC0-24h, mean (CV%)): 1320 ng·h/mL | Cmax (oral, 40 mg, CYH33, Cycle 1 Day 1, 40 mg (n = 3), read-out: Cmax, mean (CV%)): 97.9 ng/mL | Tmax (oral, 40 mg, CYH33, Cycle 1 Day 1, 40 mg (n = 3), read-out: Tmax, median (min-max)): 2 h | AUC(0-t) (oral, 40 mg, CYH33, Cycle 1 Day 28, 40mg (n=7), read-out: AUC0-24h, mean): 3940 ng·h/mL | Cmax (oral, 40 mg, CYH33, Cycle 1 Day 28, 40mg (n=7), read-out: Cmax, mean): 224 ng/mL | Tmax (oral, 40 mg, CYH33, Cycle 1 Day 28, 40mg (n=7), read-out: Tmax, median): 4 h | AUC(0-t) (oral, 60 mg, CYH33, Cycle 1 Day 1, 60 mg (n = 4), read-out: AUC0-24h, mean (CV%)): 1870 ng·h/mL | Cmax (oral, 60 mg, CYH33, Cycle 1 Day 1, 60 mg (n = 4), read-out: Cmax, mean (CV%)): 123 ng/mL | Tmax (oral, 60 mg, CYH33, Cycle 1 Day 1, 60 mg (n = 4), read-out: Tmax, median (min-max)): 4 h | AUC(0-t) (oral, 60 mg, CYH33, Cycle 1 Day 28, 60 mg (n=2), read-out: AUC0-24h, mean): 4010 ng·h/mL | Cmax (oral, 60 mg, CYH33, Cycle 1 Day 28, 60 mg (n=2), read-out: Cmax, mean): 220 ng/mL | Tmax (oral, 60 mg, CYH33, Cycle 1 Day 28, 60 mg (n=2), read-out: Tmax, median): 2.5 h | concentration at 0.5 h (oral, C1D1, 1 mg): 1.9 ng/mL | concentration at 24 h (oral, C1D1, 1 mg): 0 ng/mL | concentration at 0.5 h (oral, C1D1, 5 mg): 0 ng/mL | concentration at 24 h (oral, C1D1, 5 mg): 5.9 ng/mL | concentration at 72 h (oral, C1D1, 5 mg): 0 ng/mL | concentration at 0.5 h (oral, C1D1, 10 mg): 14 ng/mL | concentration at 4 h (oral, C1D1, 10 mg): 43.1 ng/mL | concentration at 24 h (oral, C1D1, 10 mg): 17.4 ng/mL | concentration at 72 h (oral, C1D1, 10 mg): 3.2 ng/mL | concentration at 4 h (oral, C1D1, 20 mg): 43.9 ng/mL | concentration at 12 h (oral, C1D1, 20 mg): 29.5 ng/mL | concentration at 24 h (oral, C1D1, 20 mg): 22.3 ng/mL | concentration at 72 h (oral, C1D1, 20 mg): 7.1 ng/mL | concentration at 4 h (oral, C1D1, 30 mg): 81.2 ng/mL | concentration at 12 h (oral, C1D1, 30 mg): 49.9 ng/mL | concentration at 0.5 h (oral, C1D1, 40 mg): 33.8 ng/mL | concentration at 24 h (oral, C1D1, 40 mg): 45.2 ng/mL | concentration at 0.5 h (oral, C1D1, 60 mg): 21.9 ng/mL | concentration at 24 h (oral, C1D1, 60 mg): 61.4 ng/mL | concentration at 0 h (oral, C1D28, 1 mg): 0 ng/mL | concentration at 0 h (oral, C1D28, 5 mg): 15.5 ng/mL | concentration at 0 h (oral, C1D28, 10 mg): 34.8 ng/mL | concentration at 0 h (oral, C1D28, 20 mg): 85.1 ng/mL | concentration at 0 h (oral, C1D28, 30 mg): 113 ng/mL | concentration at 24 h (oral, C1D28, 30 mg): 124 ng/mL | concentration at 0 h (oral, C1D28, 40 mg): 141 ng/mL | concentration at 0 h (oral, C1D28, 60 mg): 147 ng/mL | AUC(0-inf) (oral, CYH33, Cycle 1 Day 1, 1 mg (n = 1)): 36.8 ng·h/mL | AUC(0-inf) (oral, CYH33, Cycle 1 Day 1, 5 mg (n = 1)): 429 ng·h/mL | half-life (oral, CYH33, Cycle 1 Day 1, 5 mg (n = 1), read-out: t1/2, mean (CV%) (converted)): 1150 min | AUC(0-inf) (oral, CYH33, Cycle 1 Day 1, 10 mg (n = 2)): 1090 ng·h/mL | half-life (oral, CYH33, Cycle 1 Day 1, 10 mg (n = 2), read-out: t1/2, mean (CV%) (converted)): 1210 min | AUC(0-inf) (oral, CYH33, Cycle 1 Day 1, 20 mg (n = 5)): 2190 ng·h/mL | half-life (oral, CYH33, Cycle 1 Day 1, 20 mg (n = 5), read-out: t1/2, mean (CV%) (converted)): 1250 min | Tmax (po, dose range 1–60 mg, read-out: median time to maximum plasma concentration (Tmax)): 1 to 4 h | half-life (oral CYH33, read-out: t1/2 (converted)): ~1200 min
